# Like-named read-outs stand apart in the source and are kept apart here.
# Legend:
# [1] = tested on: B. subtilis VKPM B-8611; assay: Sensitivity to antibiotics of the Bacillus type strains (inhibited growth area); format: cell-based
# [2] = tested on: B. licheniformis VKPM B-8610; assay: as above; format: cell-based, Bacillus licheniformis
Molecule,Diameter of the culture's inhibited growth area [1] [mm],Diameter of the culture's inhibited growth area ([2]; B. licheniformis VKPM B-8610),Diameter of the culture's inhibited growth area [2] [mm]
NCC[C@H](O)C(=O)N[C@@H]1C[C@H](N)[C@@H](O[C@H]2O[C@H](CN)[C@@H](O)[C@H](O)[C@H]2O)[C@H](O)[C@H]1O[C@H]1O[C@H](CO)[C@@H](O)[C@H](N)[C@H]1O [Amikacin],22 ± 0.3,17 ± 0.2 mm,
CC1(C)S[C@@H]2[C@H](NC(=O)[C@H](N)c3ccc(O)cc3)C(=O)N2[C@H]1C(=O)O [Amoxicillin],19 ± 0.2,16 ± 0.1 mm,
CC1(C)S[C@@H]2[C@H](NC(=O)[C@H](N)c3ccccc3)C(=O)N2[C@H]1C(=O)O [Ampicillin],11 ± 0.2,∘,
CC1(C)S[C@@H]2[C@H](NC(=O)[C@H](NC(=O)N3CCNC3=O)c3ccccc3)C(=O)N2[C@H]1C(=O)O [Azlocillin],19 ± 0.1,16 ± 0.1 mm,
CC1(C)S[C@@H]2[C@H](NC(=O)Cc3ccccc3)C(=O)N2[C@H]1C(=O)O [Benzylpenicillin],7 ± 0.1,3 ± 0.2 mm,
CC1(C)S[C@@H]2[C@H](NC(=O)C(C(=O)O)c3ccccc3)C(=O)N2[C@H]1C(=O)O (stereo partly shown) [Carbenicillin],23 ± 0.5,20 ± 0.1 mm,
Cn1nnnc1SCC1=C(C(=O)O)N2C(=O)[C@@H](NC(=O)[C@H](O)c3ccccc3)[C@H]2SC1 [Cefamandole],35 ± 0.3,15 ± 0.1 mm,
Cc1nnc(SCC2=C(C(=O)O)N3C(=O)[C@@H](NC(=O)Cn4cnnn4)[C@H]3SC2)s1 [Cefazolin],25 ± 0.2,19 ± 0.2 mm,
CCN1CCN(C(=O)N[C@@H](C(=O)N[C@@H]2C(=O)N3C(C(=O)O)=C(CSc4nnnn4C)CS[C@H]23)c2ccc(O)cc2)C(=O)C1=O [Cefoperazone],15 ± 0.2,13 ± 0.1 mm,
CO/N=C(\C(=O)N[C@@H]1C(=O)N2C(C(=O)O)=C(COC(C)=O)CS[C@H]12)c1csc(N)n1 [Cefotaxime],15 ± 0.1,9 ± 0.1 mm,
CO[C@@]1(NC(=O)Cc2cccs2)C(=O)N2C(C(=O)O)=C(COC(N)=O)CS[C@@H]21 [Cefoxitin],18 ± 0.1,13 ± 0.1 mm,
CC(C)(O/N=C(\C(=O)N[C@@H]1C(=O)N2C(C(=O)[O-])=C(C[n+]3ccccc3)CS[C@H]12)c1csc(N)n1)C(=O)O [Ceftazidime],6 ± 0.3,13 ± 0.2 mm,
CO/N=C(\C(=O)N[C@@H]1C(=O)N2C(C(=O)O)=CCS[C@H]12)c1csc(N)n1 [Ceftizoxime],3 ± 0.1,11 ± 0.1 mm,
CO/N=C(\C(=O)N[C@@H]1C(=O)N2C(C(=O)O)=C(CSc3nc(=O)c(=O)[nH]n3C)CS[C@H]12)c1csc(N)n1 [Ceftriaxone],20 ± 0.4,12 ± 0.2 mm,
CO/N=C(\C(=O)N[C@@H]1C(=O)N2C(C(=O)O)=C(COC(N)=O)CS[C@H]12)c1ccco1 [Cefuroxime],2 ± 0.1,3 ± 0.1 mm,
CC(=O)OCC1=C(C(=O)O)N2C(=O)[C@@H](NC(=O)Cc3cccs3)[C@H]2SC1 [Cephalothin],35 ± 0.1,21 ± 0.3 mm,
O=C(N[C@H](CO)[C@H](O)c1ccc([N+](=O)[O-])cc1)C(Cl)Cl [Chloramphenicol],18 ± 0.3,10 ± 0.1 mm,
CCC[C@@H]1C[C@@H](C(=O)N[C@@H]([C@H]2O[C@H](SC)[C@H](O)[C@@H](O)[C@H]2O)[C@H](C)Cl)N(C)C1 [Clindamycin],9 ± 0.2,12 ± 0.1 mm,

Molecule,Diameter of the culture's inhibited growth area [1] [mm],Diameter of the culture's inhibited growth area ([2]; B. licheniformis VKPM B-8610),Diameter of the culture's inhibited growth area [2] [mm]
C[C@@H](O)[C@H]1C(=O)N2C(C(=O)O)=C(SCCN=CN)C[C@H]12 [Imipenem],38 ± 0.2,30 ± 0.1 mm,
NC[C@H]1O[C@H](O[C@H]2[C@H](O)[C@@H](O[C@H]3O[C@H](CO)[C@@H](O)[C@H](N)[C@H]3O)[C@H](N)C[C@@H]2N)[C@H](O)[C@@H](O)[C@@H]1O [Kanamycin],22 ± 0.2,21 ± 0.1 mm,
COc1cccc(OC)c1C(=O)N[C@@H]1C(=O)N2[C@@H]1SC(C)(C)[C@@H]2C(=O)O [Methicillin],20 ± 0.1,10 ± 0.1 mm,
CC1(C)S[C@@H]2[C@H](NC(=O)[C@H](NC(=O)N3CCN(S(C)(=O)=O)C3=O)c3ccccc3)C(=O)N2[C@H]1C(=O)O [Mezlocillin],21 ± 0.2,15 ± 0.2 mm,
CO[C@@]1(NC(=O)C(C(=O)O)c2ccc(O)cc2)C(=O)N2C(C(=O)O)=C(CSc3nnnn3C)CO[C@@H]21 (stereo partly shown) [Moxalactam],11 ± 0.2,12 ± 0.3 mm,
CCn1cc(C(=O)O)c(=O)c2ccc(C)nc21 [Nalidixic acid],21 ± 0.1,15 ± 0.1 mm,
O=C1CN(/N=C/c2ccc([N+](=O)[O-])o2)C(=O)N1 [Nitrofurantoin],15 ± 0.2,20 ± 0.1 mm,
CCn1cc(C(=O)O)c(=O)c2cc(F)c(N3CCNCC3)cc21 [Norfloxacin],24 ± 0.2,25 ± 0.2 mm,
Cc1onc(-c2ccccc2)c1C(=O)N[C@@H]1C(=O)N2[C@@H]1SC(C)(C)[C@@H]2C(=O)O [Oxacillin],15 ± 0.3,11 ± 0.1 mm,
CCN1CCN(C(=O)N[C@@H](C(=O)N[C@@H]2C(=O)N3[C@@H]2SC(C)(C)[C@@H]3C(=O)O)c2ccccc2)C(=O)C1=O [Piperacillin],15 ± 0.3,11 ± 0.1 mm,
CN(C)[C@@H]1C(O)=C(C(N)=O)C(=O)[C@@]2(O)C(O)=C3C(=O)c4c(O)cccc4[C@@](C)(O)[C@H]3C[C@@H]12 [Tetracycline],26 ± 0.1,,24 ± 0.1
CC1(C)S[C@@H]2[C@H](NC(=O)[C@H](C(=O)O)c3ccsc3)C(=O)N2[C@H]1C(=O)O [Ticarcillin],25 ± 0.4,21 ± 0.2 mm,
NC[C@H]1O[C@H](O[C@H]2[C@H](O)[C@@H](O[C@H]3O[C@H](CO)[C@@H](O)[C@H](N)[C@H]3O)[C@H](N)C[C@@H]2N)[C@H](N)C[C@@H]1O [Tobramycin],25 ± 0.1,20 ± 0.2 mm,
COc1cc(Cc2cnc(N)nc2N)cc(OC)c1OC [Trimethoprim],23 ± 0.1,25 ± 0.2 mm,
CN[C@H](CC(C)C)C(=O)N[C@H]1C(=O)N[C@@H](CC(N)=O)C(=O)N[C@H]2C(=O)N[C@H]3C(=O)N[C@H](C(=O)N[C@H](C(=O)O)c4cc(O)cc(O)c4-c4cc3ccc4O)[C@H](O)c3ccc(c(Cl)c3)Oc3cc2cc(c3O[C@@H]2O[C@H](CO)[C@@H](O)[C@H](O)[C@H]2O[C@H]2C[C@](C)(N)[C@H](O)[C@H](C)O2)Oc2ccc(cc2Cl)[C@H]1O [Vancomycin],12 ± 0.1,10 ± 0.1 mm,
Gentamicin,25 ± 0.3,19 ± 0.2 mm,
Polymyxin B,11 ± 0.1,10 ± 0.2 mm,

# Reference: patent publication US20140377241A1, “BIOPREPARATION BALIS FOR THE PROPHYLAXIS AND TREATMENT OF INFECTIOUS DISEASES” (priority 2010, published 2014)
